Test in all cases: NCI 60 cell line screen
Holding throughout (format): cell-based, human

The test system of one experiment is OVCAR-4. Conditions: OVCAR-4 (Ovarian Cancer); one-dose 10 µM.
For a further experiment, the system named is HL-60 (TB). Conditions: HL-60 (TB) (Leukemia).
The subject of a further experiment is NCI/ADR-RES. Conditions: NCI/ADR-RES (Ovarian Cancer); one-dose 10 µM.
In another experiment the test system is SK-MEL-28. Conditions: SK-MEL-28 (Melanoma); one-dose 10 µM.

Marks after values point to notes of the source that are not given here.

`CCC(=C(c1ccc(O)cc1)c1ccc(OCCN(C)C(=O)/C(=C/c2ccc(OC)c(O)c2)c2cc(OC)c(OC)c(OC)c2)cc1)c1ccc(O)cc1` (mixture of isomers) [Compound 28, (E)-N-(2-{4-[(E/Z)-1,2-Bis-(4-hydroxyphenyl)but-1-enyl]-phenoxy}ethyl)-3-(3-hydroxy-4-methoxyphenyl)-N-methyl-2-(3,4,5-trimethoxyphenyl)acrylamide]: the “GI% (10^−5 M)” value in the experiment on OVCAR-4 is reported as 2.59%; in the experiment with HL-60 (TB) (one-dose 10 µM) it was 100 ^d,f %; in the experiment on NCI/ADR-RES, 6.02%; in the experiment with SK-MEL-28, 1.65%. The GI50 with HL-60 (TB) (Homo sapiens, five-dose screen) was 1400 nM.

The record behind these values is paper PMC5344255, “Design, Synthesis and Biochemical Evaluation of Novel Selective Estrogen Receptor Ligand Conjugates Incorporating an Endoxifen-Combretastatin Hybrid Scaffold” (Biomedicines, 2016).
